Source: patent publication US4556715A, “Nicotinic acid derivatives” (Kyorin Pharmaceutical Co., Ltd., priority 1980, dated 1985)
Where two headings read alike, the source gives them in different places.

Legend:
in vivo = details: mouse, po, p o, male ICR mice
Source text: The present compounds were given to 6 week-old male mice of the ICR strain and their acute toxicity was examined.

[1] = system: serum and liver lipid levels in normal rats; assay: Effects on relative liver weight, serum and liver lipid levels in normal rats (100 mg/kg, 7 days); assay type: in vivo, Male Wistar strain rats; details: for Liver lipid levels Ch / Liver lipid levels PL / Liver lipid levels TG / Serum lipid levels Ch / Serum lipid levels PL / Serum lipid levels TG / Relative liver weight / Liver lipid levels Ch, relative to Control (100) / Liver lipid levels PL, relative to Control (100) / Liver lipid levels TG, relative to Control (100) / Relative liver weight, relative to Control (100) / Serum lipid levels Ch, relative to Control (100) / Serum lipid levels PL, relative to Control (100) / Serum lipid levels TG, relative to Control (100): Table 1; for Liver lipid levels Ch / Liver lipid levels PL / Liver lipid levels TG / Serum lipid levels Ch / Serum lipid levels PL / Serum lipid levels TG: fasted overnight; for Liver lipid levels Ch / Liver lipid levels PL / Liver lipid levels TG / Serum lipid levels Ch / Serum lipid levels PL / Serum lipid levels TG / Relative liver weight: mean ± S.E. (n = 6); for Liver lipid levels Ch, relative to Control (100) / Liver lipid levels PL, relative to Control (100) / Liver lipid levels TG, relative to Control (100) / Relative liver weight, relative to Control (100) / Serum lipid levels Ch, relative to Control (100) / Serum lipid levels PL, relative to Control (100) / Serum lipid levels TG, relative to Control (100): in parentheses
Method: (1) Effects on relative liver weight, serum and liver lipid levels in normal rats
Male Wistar strain rats, weighing 180-210 g were orally administered the present compounds (X=Cl, n1 =2, 3, 4 and n2 =1) and 4-(4-chlorobenzyloxy)benzyl nicotinate (KCD-232), being X=Cl, n1 =1, n2 =1, respectively, which were suspended in 0.5% carboxymethyl cellulose (CMC) solution once a day at a dose of 100 mg/kg b.w. for 7 days. The last administration was occured in rats fasted overnight. At 4 hr later blood was withdrawn from jugular vein, clotted and centrifuged to obtain serum. The liver was rapidly removed and weighed. Total lipids were extracted from the serum and liver, and cholesterol (Ch), triglycerides (TG) and phospholipids (PL) levels were determined.

[2] = system: serum and liver lipid levels in rats; assay: Serum and liver lipid levels and relative liver weight in rats (100 mg/kg, 10 days); assay type: in vivo, Male rats of the Wistar strain; details: for response vs control in vivo at 100 mg/kg: Rattus norvegicus, po; for response vs control in vivo at 100 mg/kg / Relative liver weight, relative to Control (100): in parentheses, Control = (100); for Liver lipid levels Ch / Liver lipid levels PL / Liver lipid levels TG / Relative liver weight / Serum lipid levels Ch / Serum lipid levels PL / Serum lipid levels TG: Mean ± S.E. (n = 9)
Method: (2) Male rats of the Wistar strain weighing 160-180 g were fed a stock deit (CE-2, Japan CLEA, Tokyo) and water ad libitum. The present compounds and KCD-232 were suspended, respectively, in a 0.5% of CMC solution and give orally to rats once a day at a dose of 100 mg/kg b.w. for 10 days.
Control rats were received the 0.5% CMC solution alone. The diet was withdrawn immediately after the last administration of compounds. Animals were sacrificed by decapitation 4 hr after the last administration and blood was collected, clotted and centrifuged to obtain serum. The liver was excised quickly and weighed. Total lipids were extracted from the serum and liver, and the levels of Ch, TG and PL were determined colorimetrically.

[3] = system: serum and liver lipid levels in rats; assay: Serum and liver lipid levels and relative liver weight in rats (25 mg/kg, 10 days); assay type: in vivo, male Wistar rats; details: Table 4; for Liver lipid levels Ch / Liver lipid levels PL / Liver lipid levels TG / Relative liver weight / Serum lipid levels Ch / Serum lipid levels PL / Serum lipid levels TG: 25 mg/kg p.o. 10 days, Mean ± S.E. (n = 7); for Liver lipid levels Ch, relative to Control (100) / Liver lipid levels PL, relative to Control (100) / Liver lipid levels TG, relative to Control (100) / Relative liver weight, relative to Control (100) / Serum lipid levels Ch, relative to Control (100) / Serum lipid levels PL, relative to Control (100) / Serum lipid levels TG, relative to Control (100): in parentheses
Method: (3) The present compounds and KCD-232 were orally given to male Wistar rats weighing 160-180 g once a day at a dose of 25 mg/kg b.w. for 10 days. Rats were subjected to fast for 4 hr immediately after the last administration of compounds, thereafter they were sacrificed by decapitation and blood was collected, clotted and centrifuged to obtain serum. The liver was removed quickly and weighed. Total lipids were extracted from the serum and liver, and then the levels of total Ch, TG and PL were determined with colorimetric methods.

[4] = 240 h, Table 2, read-out: Liver lipid levels PL, relative to Control (100)
[5] = Table 2, read-out: Liver lipid levels Ch, relative to Control (100)
[6] = Table 2, read-out: Liver lipid levels TG, relative to Control (100)
[7] = Table 2, read-out: Serum lipid levels Ch, relative to Control (100)
[8] = Table 2, read-out: Serum lipid levels PL, relative to Control (100)
[9] = Table 2, read-out: Serum lipid levels TG, relative to Control (100)
[10] = Table 2, 100 mg/kg p.o. 10 days
[11] = Table 3, 100 mg/kg p.o. 10 days

O=C(OCc1ccc(OCCCc2ccc(Cl)cc2)cc1)c1cccnc1 [n1=3, n2=1, 4-[3-(4-Chlorophenyl)propoxy]benzyl nicotinate]
LD50 (in vivo): > 4000 mg/kg
serum Ch, TG and PL (in words) ([1]; 100 mg/kg p.o. 7 days, compared with control): significantly reduced serum Ch, TG and PL
Liver lipid levels Ch ([1]; 100 mg/kg p.o. 7 days): 3.57 ± 0.15 mg/g liver
Liver lipid levels PL ([1]; 100 mg/kg p.o. 7 days): 34.1 ± 1.8 mg/g liver
Liver lipid levels TG ([1]; 100 mg/kg p.o. 7 days): 5.95 ± 1.83 mg/g liver
Serum lipid levels Ch ([1]; 100 mg/kg p.o. 7 days): 48.4 ± 5.4 mg/dL
Serum lipid levels PL ([1]; 100 mg/kg p.o. 7 days): 64.4 ± 5.2 mg/dL
Serum lipid levels TG ([1]; 100 mg/kg p.o. 7 days): 18 ± 2.5 mg/dL
Relative liver weight ([1]; 100 mg/kg p.o. 7 days): 3.20 ± 0.06 g/100 g b.w.
Liver lipid levels Ch, relative to Control (100) [1]: 101
Liver lipid levels PL, relative to Control (100) [1]: 92
Liver lipid levels TG, relative to Control (100) [1]: 81
Relative liver weight, relative to Control (100) [1]: 104
Serum lipid levels Ch, relative to Control (100) [1]: 64
Serum lipid levels PL, relative to Control (100) [1]: 63
Serum lipid levels TG, relative to Control (100) [1]: 53
lipid lowering effects compared with KCD-232 (in words) ([2]; 100 mg/kg p.o. 10 days): the lipid lowering effects were superior to that of KCD-232
response vs control in vivo at 100 mg/kg [2, 4]: 104%
response vs control in vivo at 100 mg/kg [2, 5]: 101%
response vs control in vivo at 100 mg/kg [2, 6]: 59.3%
response vs control in vivo at 100 mg/kg [2, 7]: 71.9%
response vs control in vivo at 100 mg/kg [2, 8]: 65.2%
response vs control in vivo at 100 mg/kg [2, 9]: 24.7%
Liver lipid levels Ch [2, 10]: 3.09 ± 0.15 mg/g liver
Liver lipid levels PL [2, 10]: 39.8 ± 0.8 mg/g liver
Liver lipid levels TG [2, 10]: 3.75 ± 0.27 mg/g liver
Relative liver weight [2, 10]: 3.89 ± 0.10 g/100 g b.w.
Serum lipid levels Ch [2, 10]: 62.3 ± 3.1 mg/dL
Serum lipid levels PL [2, 10]: 96.8 ± 5 mg/dL
Serum lipid levels TG [2, 10]: 30.6 ± 2.8 mg/dL
Relative liver weight, relative to Control (100) ([2]; Table 2): 101
Liver lipid levels Ch [3]: 3.16 ± 0.13 mg/g liver
Liver lipid levels PL [3]: 40.3 ± 0.9 mg/g liver
Liver lipid levels TG [3]: 3.97 ± 0.35 mg/g liver
Relative liver weight [3]: 3.84 ± 0.13 g/100 g b.w.
Serum lipid levels Ch [3]: 60.3 ± 5.3 mg/dL
Serum lipid levels PL [3]: 83.2 ± 8.5 mg/dL
Serum lipid levels TG [3]: 24.2 ± 2.8 mg/dL
Liver lipid levels Ch, relative to Control (100) [3]: 97.2
Liver lipid levels PL, relative to Control (100) [3]: 106.1
Liver lipid levels TG, relative to Control (100) [3]: 53.4
Relative liver weight, relative to Control (100) [3]: 109
Serum lipid levels Ch, relative to Control (100) [3]: 76.9
Serum lipid levels PL, relative to Control (100) [3]: 76.9
Serum lipid levels TG, relative to Control (100) [3]: 64.0

O=C(OCc1ccc(OCc2ccc(Cl)cc2)cc1)c1cccnc1 [KCD-232, 4-(4-chlorobenzyloxy)benzyl nicotinate, reference compound]
LD50 (in vivo): 345 mg/kg
Liver lipid levels Ch ([1]; 100 mg/kg p.o. 7 days): 3.88 ± 0.12 mg/g liver
Liver lipid levels PL ([1]; 100 mg/kg p.o. 7 days): 36.6 ± 0.7 mg/g liver
Liver lipid levels TG ([1]; 100 mg/kg p.o. 7 days): 21.45 ± 2.23 mg/g liver
Serum lipid levels Ch ([1]; 100 mg/kg p.o. 7 days): 58.5 ± 5 mg/dL
Serum lipid levels PL ([1]; 100 mg/kg p.o. 7 days): 77.7 ± 6.4 mg/dL
Serum lipid levels TG ([1]; 100 mg/kg p.o. 7 days): 23.4 ± 2.2 mg/dL
Relative liver weight ([1]; 100 mg/kg p.o. 7 days): 3.20 ± 0.10 g/100 g b.w.
Liver lipid levels Ch, relative to Control (100) [1]: 110
Liver lipid levels PL, relative to Control (100) [1]: 99
Liver lipid levels TG, relative to Control (100) [1]: 291
Relative liver weight, relative to Control (100) [1]: 104
Serum lipid levels Ch, relative to Control (100) [1]: 77
Serum lipid levels PL, relative to Control (100) [1]: 76
Serum lipid levels TG, relative to Control (100) [1]: 69
liver TG level (in words) ([1]; last administration in rats fasted overnight): remarkably rose liver TG level
response vs control in vivo at 100 mg/kg [2, 4]: 99.2%
response vs control in vivo at 100 mg/kg ([2]; 240 h, Table 3, read-out: Liver lipid levels PL, relative to Control (100)): 99.7%
response vs control in vivo at 100 mg/kg [2, 5]: 104%
response vs control in vivo at 100 mg/kg [2, 6]: 63.3%
response vs control in vivo at 100 mg/kg [2, 7]: 72.5%
response vs control in vivo at 100 mg/kg [2, 8]: 67.3%
response vs control in vivo at 100 mg/kg [2, 9]: 32.7%
response vs control in vivo at 100 mg/kg ([2]; Table 3, read-out: Liver lipid levels Ch, relative to Control (100)): 103%
response vs control in vivo at 100 mg/kg ([2]; Table 3, read-out: Liver lipid levels TG, relative to Control (100)): 65.2%
response vs control in vivo at 100 mg/kg ([2]; Table 3, read-out: Serum lipid levels Ch, relative to Control (100)): 70%
response vs control in vivo at 100 mg/kg ([2]; Table 3, read-out: Serum lipid levels PL, relative to Control (100)): 62.1%
response vs control in vivo at 100 mg/kg ([2]; Table 3, read-out: Serum lipid levels TG, relative to Control (100)): 36.1%
Liver lipid levels Ch [2, 10]: 3.15 ± 0.08 mg/g liver
Liver lipid levels PL [2, 10]: 37.8 ± 0.6 mg/g liver
Liver lipid levels TG [2, 10]: 4.00 ± 0.28 mg/g liver
Relative liver weight [2, 10]: 4.05 ± 0.05 g/100 g b.w.
Serum lipid levels Ch [2, 10]: 62.8 ± 3 mg/dL
Serum lipid levels PL [2, 10]: 100 ± 4.6 mg/dL
Serum lipid levels TG [2, 10]: 40.5 ± 2.7 mg/dL
Relative liver weight, relative to Control (100) ([2]; Table 2): 105
Liver lipid levels Ch [2, 11]: 2.39 ± 0.07 mg/g liver
Liver lipid levels PL [2, 11]: 36.1 ± 0.4 mg/g liver
Liver lipid levels TG [2, 11]: 4.67 ± 0.42 mg/g liver
Relative liver weight [2, 11]: 3.71 ± 0.07 g/100 g b.w.
Serum lipid levels Ch [2, 11]: 68.3 ± 3.1 mg/dL
Serum lipid levels PL [2, 11]: 96.8 ± 3.4 mg/dL
Serum lipid levels TG [2, 11]: 45.3 ± 3.5 mg/dL
Relative liver weight, relative to Control (100) ([2]; Table 3): 98
Liver lipid levels Ch [3]: 2.98 ± 0.08 mg/g liver
Liver lipid levels PL [3]: 40.2 ± 0.6 mg/g liver
Liver lipid levels TG [3]: 4.36 ± 0.65 mg/g liver
Relative liver weight [3]: 3.72 ± 0.07 g/100 g b.w.
Serum lipid levels Ch [3]: 63.5 ± 3.1 mg/dL
Serum lipid levels PL [3]: 89 ± 4.4 mg/dL
Serum lipid levels TG [3]: 31.3 ± 2.9 mg/dL
Liver lipid levels Ch, relative to Control (100) [3]: 91.7
Liver lipid levels PL, relative to Control (100) [3]: 105.8
Liver lipid levels TG, relative to Control (100) [3]: 58.6
Relative liver weight, relative to Control (100) [3]: 105
Serum lipid levels Ch, relative to Control (100) [3]: 81.4
Serum lipid levels PL, relative to Control (100) [3]: 82.3
Serum lipid levels TG, relative to Control (100) [3]: 82.8
